In paper PMC7571145, “Multistep Synthesis and In Vitro Anticancer Evaluation of 2-Pyrazolyl-Estradiol Derivatives, Pyrazolocoumarin-Estradiol Hybrids and Analogous Compounds” (Molecules, 2020):
Values belong to the compound of their own block, whether it stands above or below them.

Legend:
HeLa cells = assay: MTT cytotoxicity assay on HeLa cells; assay type: cell-based; settings: 72 h; for primary growth inhibitory screen, cell viability, HeLa: 2.5 µM, mean±SD, untreated control about 100; for IC50: Homo sapiens, HeLa, compounds 1-7 µM, mean ± SD, read-out: IC50 on HeLa
Method: (§1) Cytotoxicity screens were performed to assess the in vitro anticancer activity of the synthesized A-ring-linked 2-pyrazoles of estradiol, the pyrazolocoumarin-estradiol hybrids, and their structurally simplified non-steroidal analogs on various cancerous cell lines such as MCF-7, PC-3, DU145, and HeLa and on non-cancerous MRC-5 fibroblasts. The 2-acetyl-phenol starting materials (4, 5, and 15) were also included for comparison. All compounds were applied in 2.5 µM concentration for 72 h. The obtained cell viability data were used to construct a heat map (Figure 2) in order to select compounds that exert cancer cell line-specific cytotoxicity. […] Furthermore, some compounds discriminated only DU145 cells and could eliminate these type of prostate cancer cells.
(§2) To understand structure-function relationships, we also included the structural analogs of the selected compounds, namely 7a (C-17 acetate of 8a), 8c (C-17 OH counterpart of 7c), and 9a (steroidal pair of 19a) into subsequent analyses. […] For this, compounds were applied on MCF-7, PC-3, DU145, and HeLa and on non-cancerous MRC-5 fibroblasts in various concentrations for 72 h or were treated with cisplatin at different concentrations. On the viability data, dose–response curves were fitted (Figure S1) and IC50 values were calculated accordingly (Table 3). In agreement with the primary cytotoxicity screen (Table S1), the obtained IC50 concentrations clearly indicated which compound was selectively effective on one or more cancer cell lines. […] Typically, acetylated steroidal pyrazoles were less favorable than deacetylated counterparts due to reduced cancer cell selectivity (7c, 10a).
(§3) To evaluate the in vitro pharmacological effects of the synthesized molecules, each compound was first dissolved in cell culture grade DMSO (Sigma) to a final concentration of 10 mM. Using MTT colorimetric assay, the cytotoxicity of these compounds was evaluated on cancerous (MCF-7, HeLa, DU145, PC-3) and non-cancerous (MRC-5) cell lines. Briefly, 5000 cells/well of each cell line were seeded in 96-well plates and were left to grow overnight in a 5% CO2 atmosphere at 37 °C. On the next day, cells were treated with each derivative separately, in case of the primary screen, or only with the selected compounds upon IC50 determination. Cells were incubated with the test compounds for 72 h in a 5% CO2 atmosphere at 37 °C. End point was measured by incubating cells for 1 h with 0.5 mg/mL of MTT reagent (Serva) dissolved in serum free culture medium. The formazan crystals formed by metabolically active cells were later dissolved in DMSO. Optical density of the obtained solutions was measured at 570 nm using a Synergy HTX plate reader. […] The analysis and conclusions were made based on three independent experiments. Normalized data were analyzed and the heat map was constructed using GraphPad Prism 7 software.

MRC-5 fibroblasts = assay: MTT cytotoxicity assay on non-cancerous MRC-5 fibroblasts; assay type: cell-based; settings: 72 h; for primary growth inhibitory screen, cell viability, MRC-5 / effect on non-cancerous fibroblasts: 2.5 µM; for primary growth inhibitory screen, cell viability, MRC-5 / IC50: MTT; for primary growth inhibitory screen, cell viability, MRC-5: mean±SD, untreated control about 100; for effect on non-cancerous fibroblasts: based on the heat map; for IC50: Homo sapiens, MRC5, compounds 1-7 µM, mean ± SD, read-out: IC50 on MRC-5
Method: as §1, §2, §3

MCF-7 cells = assay: MTT cytotoxicity assay on MCF-7 cells; assay type: cell-based; settings: for primary growth inhibitory screen, cell viability, MCF-7: 2.5 µM, 72 h, mean±SD, untreated control about 100; for IC50: Homo sapiens, MCF7, 72 h, compounds 1-7 µM, mean ± SD, read-out: IC50 on MCF-7
Method: as §1, §2, §3

DU145 cells = assay: MTT cytotoxicity assay on DU145 prostate cancer cells; assay type: cell-based; settings: for primary growth inhibitory screen, cell viability, DU145: 2.5 µM, 72 h, mean±SD, untreated control about 100; for IC50: Homo sapiens, DU-145, 72 h, compounds 1-7 µM, mean ± SD, read-out: IC50 on DU145
Method: as §1, §2, §3

PC-3 cells = assay: MTT cytotoxicity assay on PC-3 prostate cancer cells; assay type: cell-based; settings: for primary growth inhibitory screen, cell viability, PC-3: 2.5 µM, 72 h, mean±SD, untreated control about 100; for IC50: Homo sapiens, PC-3, 72 h, compounds 1-7 µM, mean ± SD, read-out: IC50 on PC-3
Method: as §1, §2, §3

- melting point: 221 to 223 °C
Compound: O=c1oc2cc3c(cc2c2nn(-c4ccccc4)cc12)CCCC3 [Compound 19a, 2-Phenyl-7,8,9,10-tetrahydrobenzo[6,7]chromeno[4,3-c]pyrazol-4(2H)-one]
- primary growth inhibitory screen, cell viability, HeLa (HeLa cells): ≥ 100±8.7
- IC50 (HeLa cells): > 7 µM
- primary growth inhibitory screen, cell viability, MRC-5 (MRC-5 fibroblasts): ≥ 100±3.0
- effect on non-cancerous fibroblasts (MRC-5 fibroblasts): no or very mild effect
- IC50 (MRC-5 fibroblasts): > 7 µM
- primary growth inhibitory screen, cell viability, MCF-7 (MCF-7 cells): ≥ 100±3.9
- IC50 (MCF-7 cells): 6.83 ± 1.1 µM
- primary growth inhibitory screen, cell viability, DU145 (DU145 cells): 21.6±0.5
- IC50 (DU145 cells): 1.41 ± 1.1 µM
- primary growth inhibitory screen, cell viability, PC-3 (PC-3 cells): 95.4±1.3
- IC50 (PC-3 cells): 4.7 ± 1 µM

Compound: CC(=O)c1cc2c(cc1O)CC[C@@H]1[C@@H]2CC[C@]2(C)[C@@H](O)CC[C@@H]12 [Compound 5, 2-Acetyl-estra-1,3,5(10)-triene-3,17β-diol]
- primary growth inhibitory screen, cell viability, HeLa (HeLa cells): 99.6±3.5
- primary growth inhibitory screen, cell viability, MRC-5 (MRC-5 fibroblasts): ≥ 100±7
- primary growth inhibitory screen, cell viability, MCF-7 (MCF-7 cells): 87.5
- melting point: 189 to 191 °C
- primary growth inhibitory screen, cell viability, DU145 (DU145 cells): 100.6±6.5
- primary growth inhibitory screen, cell viability, PC-3 (PC-3 cells): 79.0±3.8

Compound: C[C@]12CC[C@@H]3c4cc(-c5nn(-c6ccccc6)cc5C=O)c(O)cc4CC[C@H]3[C@@H]1CC[C@@H]2O [Compound 8a, 2-(4′-Formyl-1′-phenyl-1′H-pyrazol-3′-yl)-estra-1,3,5(10)-trien-3,17β-diol]
- primary growth inhibitory screen, cell viability, HeLa (HeLa cells): 100.4±1.6
- IC50 (HeLa cells): 4.09 ± 1 µM
- primary growth inhibitory screen, cell viability, MRC-5 (MRC-5 fibroblasts): 99.9±3.3
- effect on non-cancerous fibroblasts (MRC-5 fibroblasts): no or very mild effect
- IC50 (MRC-5 fibroblasts): 5.12 ± 1 µM
- primary growth inhibitory screen, cell viability, MCF-7 (MCF-7 cells): 100.9±4.8
- IC50 (MCF-7 cells): 5.03 ± 1 µM
- melting point: 172 to 174 °C
- primary growth inhibitory screen, cell viability, DU145 (DU145 cells): 108.8±4.1
- IC50 (DU145 cells): 6.46 ± 1 µM
- primary growth inhibitory screen, cell viability, PC-3 (PC-3 cells): 54.9±3.0
- IC50 (PC-3 cells): 3.05 ± 1 µM

Compound: CC(=O)O[C@H]1CC[C@H]2[C@@H]3CCc4cc(O)c(-c5nn(-c6ccc(C)cc6)cc5CO)cc4[C@H]3CC[C@]12C [Compound 10b]
- primary growth inhibitory screen, cell viability, HeLa (HeLa cells): 68.3±2.2
- primary growth inhibitory screen, cell viability, MRC-5 (MRC-5 fibroblasts): 96.9±3.8
- primary growth inhibitory screen, cell viability, MCF-7 (MCF-7 cells): 87.6±0.7
- melting point: 254 to 256 °C
- primary growth inhibitory screen, cell viability, DU145 (DU145 cells): ≥ 100±6.8
- primary growth inhibitory screen, cell viability, PC-3 (PC-3 cells): 88.0±5.6

- melting point: 154 to 156 °C
Compound: OCc1cn(-c2ccc(Cl)cc2)nc1-c1cc2c(cc1O)CCCC2 [Compound 18c, 3-(1′-(4″-Chlorophenyl)-4′-(hydroxymethyl)-1′H-pyrazol-3′-yl)-5,6,7,8-tetrahydro-2-naphthol]
- primary growth inhibitory screen, cell viability, HeLa (HeLa cells): ≥ 100±6.6
- primary growth inhibitory screen, cell viability, MRC-5 (MRC-5 fibroblasts): ≥ 100±2.3
- primary growth inhibitory screen, cell viability, MCF-7 (MCF-7 cells): ≥ 100±4.7
- primary growth inhibitory screen, cell viability, DU145 (DU145 cells): ≥ 100±4.3
- primary growth inhibitory screen, cell viability, PC-3 (PC-3 cells): 90.9±3.0

Compound: Cc1ccc(-n2cc(CO)c(-c3cc4c(cc3O)CC[C@@H]3[C@@H]4CC[C@]4(C)[C@@H](O)CC[C@@H]34)n2)cc1 [Compound 11b]
- primary growth inhibitory screen, cell viability, HeLa (HeLa cells): 70.1±4.5
- primary growth inhibitory screen, cell viability, MRC-5 (MRC-5 fibroblasts): ≥ 100±2.2
- primary growth inhibitory screen, cell viability, MCF-7 (MCF-7 cells): 80.4±2.9
- melting point: 201 to 203 °C
- primary growth inhibitory screen, cell viability, DU145 (DU145 cells): 97.5±10.1
- primary growth inhibitory screen, cell viability, PC-3 (PC-3 cells): 74.3±2.3

- melting point: 291 to 293 °C
Compound: O=c1oc2cc3c(cc2c2nn(-c4ccc(Cl)cc4)cc12)CCCC3 [Compound 19c, 2-(4′-Chlorophenyl)-7,8,9,10-tetrahydrobenzo[6,7]chromeno[4,3-c]pyrazol-4(2H)-one]
- primary growth inhibitory screen, cell viability, HeLa (HeLa cells): ≥ 100±8.3
- primary growth inhibitory screen, cell viability, MRC-5 (MRC-5 fibroblasts): ≥ 100±2.5
- primary growth inhibitory screen, cell viability, MCF-7 (MCF-7 cells): ≥ 100±3.8
- primary growth inhibitory screen, cell viability, DU145 (DU145 cells): ≥ 100.6±10.8
- primary growth inhibitory screen, cell viability, PC-3 (PC-3 cells): 79.1±7.8

Compound: C[C@]12CC[C@@H]3c4cc(-c5nn(-c6ccccc6)cc5CO)c(O)cc4CC[C@H]3[C@@H]1CC[C@@H]2O [Compound 11a]
- primary growth inhibitory screen, cell viability, HeLa (HeLa cells): 75.4±1.1
- IC50 (HeLa cells): 4.3 ± 1 µM
- primary growth inhibitory screen, cell viability, MRC-5 (MRC-5 fibroblasts): ≥ 100±8.2
- effect on non-cancerous fibroblasts (MRC-5 fibroblasts): no or very mild effect
- IC50 (MRC-5 fibroblasts): > 7 µM
- primary growth inhibitory screen, cell viability, MCF-7 (MCF-7 cells): 93.4±3.7
- IC50 (MCF-7 cells): 6.8 ± 1 µM
- melting point: 141 to 143 °C
- primary growth inhibitory screen, cell viability, DU145 (DU145 cells): 98.2±5.4
- IC50 (DU145 cells): > 7 µM
- primary growth inhibitory screen, cell viability, PC-3 (PC-3 cells): 59.7±3.2
- IC50 (PC-3 cells): 2.9 ± 1.3 µM
